Measured values reported in BindingDB's records for doi:10.1002/cbic.200900537 (University of Cambridge, 2009).

Target: T1, Pantothenate synthetase (Mycobacterium tuberculosis (strain ATCC 25618 / H37Rv), UniProt P9WIL5)
T1 sequence (P9WIL5 whole entry): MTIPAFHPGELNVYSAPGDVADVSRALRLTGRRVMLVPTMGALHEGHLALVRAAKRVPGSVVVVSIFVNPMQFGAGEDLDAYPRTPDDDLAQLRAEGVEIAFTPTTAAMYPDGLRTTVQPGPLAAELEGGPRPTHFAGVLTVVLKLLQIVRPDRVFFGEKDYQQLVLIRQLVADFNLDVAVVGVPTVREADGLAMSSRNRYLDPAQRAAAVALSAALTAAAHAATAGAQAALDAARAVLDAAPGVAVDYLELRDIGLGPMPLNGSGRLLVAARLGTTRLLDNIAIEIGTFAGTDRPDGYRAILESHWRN
Test: Binding Assay
Settings: pH 7.6; 25 °C
Description: The dissociation constants and enthalpies was determined by isothermal titration calorimety.

Nc1ncnc2c1ncn2[C@@H]1O[C@H](CSSCC(O)CO)[C@@H](O)[C@H]1O (stereo partly specified) [5'-Deoxy-5'-thiodenosine scaffold, 14c]
Kd: 570 µM
